In paper doi:10.1101/2022.10.08.511437v2 (biorxiv, 2023):

How the values were obtained:
[1] = target: T1, full-length elephant shark GR (Callorhinchus milii, UniProt V9KGN8); assay: cell-based; set-up: species or system HEK293
T1 sequence (V9KGN8 1-704): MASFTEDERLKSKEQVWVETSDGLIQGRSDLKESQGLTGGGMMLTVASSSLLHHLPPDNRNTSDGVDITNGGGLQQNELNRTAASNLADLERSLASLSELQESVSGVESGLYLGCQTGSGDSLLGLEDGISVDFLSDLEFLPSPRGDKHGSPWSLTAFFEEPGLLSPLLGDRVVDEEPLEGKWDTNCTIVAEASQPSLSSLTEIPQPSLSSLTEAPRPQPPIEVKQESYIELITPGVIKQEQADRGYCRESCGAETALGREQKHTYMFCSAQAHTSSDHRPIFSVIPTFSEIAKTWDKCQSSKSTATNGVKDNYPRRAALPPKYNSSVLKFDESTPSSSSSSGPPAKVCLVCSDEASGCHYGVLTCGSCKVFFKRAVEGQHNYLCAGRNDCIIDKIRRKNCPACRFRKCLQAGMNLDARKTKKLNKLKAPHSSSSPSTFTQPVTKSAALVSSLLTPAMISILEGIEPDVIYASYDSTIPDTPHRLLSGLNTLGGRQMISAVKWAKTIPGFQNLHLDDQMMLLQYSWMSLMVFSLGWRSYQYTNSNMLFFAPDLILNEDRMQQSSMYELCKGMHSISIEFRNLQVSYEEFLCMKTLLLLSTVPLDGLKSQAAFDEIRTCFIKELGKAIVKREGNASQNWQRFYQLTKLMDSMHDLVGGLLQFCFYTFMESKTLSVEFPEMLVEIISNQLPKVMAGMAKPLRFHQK

[2] = target: T1, full-length elephant shark GR; assay: cell-based; set-up: species or system HEK293; remark: listed apart in the source
[3] = target: T2, full-length elephant shark MR (Callorhinchus milii, UniProt A0A4W3I5J5); assay: cell-based; set-up: species or system HEK293
T2 sequence (A0A4W3I5J5 1-956): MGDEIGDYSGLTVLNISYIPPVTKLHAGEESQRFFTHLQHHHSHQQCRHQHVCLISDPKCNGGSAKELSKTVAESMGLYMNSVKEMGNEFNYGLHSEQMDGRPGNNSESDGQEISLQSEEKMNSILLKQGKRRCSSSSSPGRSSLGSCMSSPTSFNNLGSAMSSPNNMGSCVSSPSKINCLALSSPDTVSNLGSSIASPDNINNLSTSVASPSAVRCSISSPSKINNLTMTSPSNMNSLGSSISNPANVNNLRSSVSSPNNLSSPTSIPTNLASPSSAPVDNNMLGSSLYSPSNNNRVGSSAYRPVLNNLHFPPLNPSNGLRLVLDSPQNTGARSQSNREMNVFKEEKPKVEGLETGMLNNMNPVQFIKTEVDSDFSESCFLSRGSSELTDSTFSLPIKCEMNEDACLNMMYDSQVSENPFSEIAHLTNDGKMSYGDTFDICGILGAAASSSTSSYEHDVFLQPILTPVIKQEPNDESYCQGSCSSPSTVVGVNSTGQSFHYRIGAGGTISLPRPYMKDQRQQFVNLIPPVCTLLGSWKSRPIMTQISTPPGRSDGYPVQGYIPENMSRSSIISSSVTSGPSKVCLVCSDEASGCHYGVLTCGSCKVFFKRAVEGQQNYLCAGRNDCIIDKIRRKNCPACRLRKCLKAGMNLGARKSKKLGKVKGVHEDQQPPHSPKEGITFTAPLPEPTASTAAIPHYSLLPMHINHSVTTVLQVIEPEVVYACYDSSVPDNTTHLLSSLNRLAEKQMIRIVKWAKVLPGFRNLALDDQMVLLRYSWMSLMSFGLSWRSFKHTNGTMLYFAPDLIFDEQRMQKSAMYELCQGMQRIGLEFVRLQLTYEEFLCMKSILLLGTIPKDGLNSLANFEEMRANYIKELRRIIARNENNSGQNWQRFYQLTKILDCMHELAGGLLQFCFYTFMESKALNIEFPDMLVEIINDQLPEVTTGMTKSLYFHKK

[4] = target: T1, full-length elephant shark GR; assay: luciferase reporter transactivation in HEK293 cells; type: cell-based

SMILES | EC50 [1] | EC50 [2] | EC50 [3] | EC50 [4]
C[C@]12CC[C@H]3[C@@H](CCC4=CC(=O)CC[C@@]43C)[C@@H]1CC[C@@H]2C(=O)CO [11-deoxycorticosterone] | 11.2 nM | 11 nM | – | –
C[C@]12CCC(=O)C=C1CC[C@@H]1[C@@H]2CC[C@@]2(C)[C@H]1CC[C@]2(O)C(=O)CO [11-deoxycortisol] | – | – | 0.2 nM | 289 nM
C[C@]12CCC(=O)C=C1CC[C@@H]1[C@@H]2[C@@H](O)C[C@]2(C=O)[C@@H](C(=O)CO)CC[C@@H]12 [aldosterone] | – | – | 0.08 nM | –
C[C@]12C[C@H](O)[C@H]3[C@@H](CCC4=CC(=O)CC[C@@]43C)[C@@H]1CC[C@@H]2C(=O)CO [corticosterone] | – | – | 1 nM | –
C[C@]12CCC(=O)C=C1CC[C@@H]1[C@@H]2[C@@H](O)C[C@@]2(C)[C@H]1CC[C@]2(O)C(=O)CO [cortisol] | – | – | 2.4 nM | –
